Series [1] has as its system human lymphocytes. The conditions noted are these: positive control. As to the method: Gene toxicity was assessed by testing the potential of SET-M33L to induce micronuclei in human lymphocytes. Human lymphocytes in whole blood culture, stimulated to divide by addition of PHA 48 hours prior to treatment, were exposed to SET-M33L for 3 hours with and without exogenous metabolic activation (S9 mix), and for 20 hours without S9 mix.
Analysis of micronucleated cells was based on the criteria described by Fenech and Morley[37] and Fenech[38]. […] Human lymphocytes from informed donors were pooled and diluted with HML media (RPMI 1640, supplemented with 10% fetal calf serum, 0.2 IU/ml sodium heparin, 20 IU/ml penicillin, 20 μg/ml streptomycin and 2.0 mM L-glutamine). […] Cultures were established from the prepared (pooled) sample and dispensed as 5 ml aliquots (in sterile universal containers) so that each culture contained blood (0.4 ml), HML media (4.5 ml) and PHA solution (0.1 ml). The cultures were then incubated at 37 °C, and the cells were resuspended (twice daily) by gentle inversion.
Lymphocyte cultures were incubated for approximately 48 hours after stimulation with PHA, before addition of SET-M33L; controls were appropriately diluted with vehicle. S9 homogenate was present in appropriate cultures at a final concentration of 2% v/v. Before treatment, all cultures were centrifuged and resuspended in the required volume of fresh medium, taking treatment volume and S9 mix volume into account. SET-M33L preparations were added to cultures at 10% v/v. Cultures were incubated at 37 °C for 3 or 20 hours.
The cells were centrifuged and the medium replaced with fresh medium. Cytochalasin B, at a final concentration of 6 μg/ml, was then added to all cultures. The cultures were incubated for a further 17 hours until the scheduled harvest time.
The cells were harvested by centrifugation at 500 g for 5 minutes. […] The prepared slides were examined by fluorescence microscopy. The incidences of mononucleate, binucleate and polynucleate cells were assessed per culture per 1000 binucleate cells. […]

Series [2] deals with Klebsiella pneumoniae clinical isolates. Format: cell-based. The conditions noted are these: clinical isolates. As to the method: Minimum inhibitory concentrations (MICs) of SET-M33L were determined against 76 clinical isolates of Pseudomonas aeruginosa and 73 clinical isolates of Klebsiella pneumoniae. The isolates were selected on the basis of their resistance phenotypes and major antibiotic resistance determinants, including resistance to colistin and carriage of carbapenemase-encoding genes (Table 1 and supplemental Tables S1 and S2).
MIC values were determined against a large collection of clinical isolates. Most isolates were collected during routine susceptibility testing procedures at the Clinical Microbiology Unit of Careggi University Hospital in Florence, while specific isolates were selected according to their phenotype or genotype (e.g. carriage of carbapenemase-encoding genes, inclusion in epidemic bacterial clones, resistance to colistin) from a collection of isolates already available at Department of Medical Biotechnologies, University of Siena. Detailed features of each strain, including relevant resistance phenotypes and genotypes were reported in supplemental Tables S1 and S2. MICs were determined in triplicate using a standard microdilution assay according to the guidelines of the Clinical and Laboratory Standards Institute[34]. SET-M33L was assayed using concentrations in the range 0.09–11.2 μM (0.5–64 μg/mL); testing was performed using a bacterial inoculum of 5 × 10^4 CFU/well prepared in cation-supplemented Mueller-Hinton broth (MHB) (Becton Dickinson, Franklin Lakes, NJ, USA) in a final volume of 100 μl. Results were recorded after 18–20 h of incubation at 35 °C.

For series [3], the system named is BALB/c mice. The experiment in a line: Acute toxicity in mice, single i.v. dose. Format: in vivo, mouse. How it is done:
As preliminary toxicity evaluation we first compared the acute toxicity of SET-M33L and SET-M33L-PEG with that of colistin. Animals (10 BALB/c mice/group) were injected i.v. with different amounts of SET-M33L, SET-M33L-PEG or colistin, in single dose, in the range 5–40 mg/kg (Fig. 4), and were monitored for 4 days after inoculation of the peptide. […] At 40 mg/Kg SET-M33L and SET-M33L-PEG produced similar toxicity profiles with strong signs of toxicity and 90–100% mortality after 96 hours. Colistin produced strong signs of toxicity already at 10 mg/Kg: 50% mortality immediately after inoculation and 70% mortality after 24 hours. Colistin induced sudden death in 100% of mice at 20 and 40 mg/Kg.
Mice were treated by a single i.v. administration of different amounts (40, 20, 10, 5 mg/Kg) of SET-M33L, SET-M33L-PEG or colistin sulfate (Sigma-Aldrich, C4461). Signs of toxicity were checked four times a day by visual inspection. A toxicity score was assigned for the following signs: wiry coat and poor motility = mild signs; very wiry coat, abundant lachrymation and poor motility even under stimulation = manifest signs. Animals were monitored for 4 days after inoculation of the peptide. Mice were weighed every day from arrival to the last day of the experiment. Moribund animals were killed humanely to avoid unnecessary distress.

The subject of series [4] is K. pneumoniae strain KKBO-1. Format: cell-based, Klebsiella pneumoniae. To be noted: K. pneumoniae KKBO-1. As to the method:
Tests were performed by plating cells on SET-M33L- or colistin-containing MHB.

Structures are written as SMILES. In brackets after ≈: the same amount, converted by molar mass. Where two headings read alike, the source gives them in different places. Positions of bridges follow the written chain, without caps; N, C: chain ends. Non-standard residues stand in square brackets, D forms with d. Residues, ends and D or L forms follow the SMILES beside them. Chains are numbered I, II in the order given. βAla = NCCC(=O)O A value given as a limit tells only on which side of the number the result lay.

As to `O=P1(N(CCCl)CCCl)NCCCO1` (stereo not shown) [CPA, Cyclophosphamide], in series [1] (3h + S9, 10 μg/ml), the “Mean of binucleate cells containing micronuclei per 1000 cells” value is listed as 17.0 per 1000 cells.

`CO[C@@]12[C@H](COC(N)=O)C3=C(C(=O)C(C)=C(N)C3=O)N1C[C@@H]1N[C@@H]12` [MMC, Mitomycin C]: the “Mean of binucleate cells containing micronuclei per 1000 cells” value was found to be 28.0 per 1000 cells in series [1] (3h − S9, 0.2 μg/ml) and 22.5 per 1000 cells in series [1] (20h − S9, 0.05 μg/ml).

With `CC[C@H](C)[C@H](NC(=O)[C@H](CCCCN)NC(=O)[C@@H](N)CCCCN)C(=O)N[C@@H](CCCNC(=N)N)C(=O)N[C@H](C(=O)N[C@@H](CCCNC(=N)N)C(=O)N[C@@H](CC(C)C)C(=O)N[C@@H](CO)C(=O)N[C@@H](C)C(=O)NCCCC[C@H](NC(=O)[C@H](C)NC(=O)[C@H](CO)NC(=O)[C@H](CC(C)C)NC(=O)[C@H](CCCNC(=N)N)NC(=O)[C@@H](NC(=O)[C@H](CCCNC(=N)N)NC(=O)[C@@H](NC(=O)[C@H](CCCCN)NC(=O)[C@@H](N)CCCCN)[C@@H](C)CC)C(C)C)C(=O)NCCCC[C@H](NC(=O)[C@H](CCCCNC(=O)[C@H](C)NC(=O)[C@H](CO)NC(=O)[C@H](CC(C)C)NC(=O)[C@H](CCCNC(=N)N)NC(=O)[C@@H](NC(=O)[C@H](CCCNC(=N)N)NC(=O)[C@@H](NC(=O)[C@H](CCCCN)NC(=O)[C@@H](N)CCCCN)[C@@H](C)CC)C(C)C)NC(=O)[C@H](C)NC(=O)[C@H](CO)NC(=O)[C@H](CC(C)C)NC(=O)[C@H](CCCNC(=N)N)NC(=O)[C@@H](NC(=O)[C@H](CCCNC(=N)N)NC(=O)[C@@H](NC(=O)[C@H](CCCCN)NC(=O)[C@@H](N)CCCCN)[C@@H](C)CC)C(C)C)C(=O)NCCC(=O)O)C(C)C` [SET-M33L] (I: H-KKIRVRLSAKK[βAla]-OH / II: H-KKIRVRLSAK / III: H-KKIRVRLSA / IV: H-KKIRVRLSA; amide I:10-IV:C, I:11-II:C, II:10-III:C), the MIC in series [2] is greater than 64 µg/mL; in series [4] it was 0.35 µM (≈ 1.64 µg/mL). In series [3] (single i.v. dose 40 mg/Kg, after 96 hours), the mortality is given as 90–100%. Further, the “lethality and signs of toxicity” value in series [3] (single i.v. dose up to 20 mg/kg, monitored 4 days, 10 BALB/c mice/group) is “not lethal and no signs of toxicity were observed”.

The values above are taken from publication PMC4864329, “In vitro and in vivo efficacy, toxicity, bio-distribution and resistance selection of a novel antibacterial drug candidate” (Scientific Reports, 2016).
